Experimental findings from patent US20070213339A1 (Bayer Pharmaceuticals Corporation, priority 2004, published 2007) are described below.

The assay has as its system Colo205 human colon carcinoma cell line. Kind of assay: In vitro tumor cell proliferation assay (MTS, CellTiter 96 Aqueous One Solution). Type of assay: cell-based. Particulars: COLO 205, Colo205 cells, 72 hours compound exposure, MTS absorbance at 490 nm, read-out: IC50 (concentration of test compound required to inhibit proliferation of 50% of the cells). The method in brief:
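Proliferation measured as MTS tetrazolium reduction (490 nm) after 72 h compound exposure at 37 °C. Cells plated at 2000 per well in serum-supplemented RPMI-1640; duplicate 5-point dilutions topping out at 10-20 μM. Percent inhibition versus untreated and cell-free wells, IC50 derived by linear regression.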
Turning to `Cc1cccc(N2CCN(c3c(F)cc4c(=O)c(C(=O)O)cn(-c5ccc(CN(C)C)cc5)c4c3OC(F)(F)F)CC2)n1` [Example 127, 1-{4-[(dimethylamino)methyl]phenyl}-6-fluoro-7-[4-(6-methylpyridin-2-yl)piperazin-1-yl]-4-oxo-8-(trifluoromethoxy)-1,4-dihydroquinoline-3-carboxylic acid], the IC50 was below 500 nM.
For `O=C(O)c1cn(-c2ccc(CNC3CCCC3Cl)cc2)c2c(Cl)c(N3CCN(c4ccccn4)CC3)c(F)cc2c1=O` (centres unmarked) [Example 173, 8-chloro-1-{4-[(2-chloro-cyclopentylamino)-methyl]-phenyl}-6-fluoro-4-oxo-7-(4-pyridin-2-yl-piperazine-1-yl)-1,4-dihydro-quinoline-3-carboxylic acid], the IC50 is 500 to 2000 nM.
On to `COc1c(N2CCN(c3ccccc3[N+](=O)[O-])CC2)c(F)cc2c(=O)c(C(=O)O)cn(-c3ccc(CN(C)C)cc3)c12` [Example 104, 1-{4-[(dimethylamino)methyl]phenyl}-6-fluoro-8-methoxy-7-[4-(2-nitrophenyl)piperazin-1-yl]-4-oxo-1,4-dihydroquinoline-3-carboxylic acid], for which the IC50 lay within 2000 to 20000 nM.
Take `COc1c(N2CCN(c3ccccc3)CC2)c(F)cc2c(=O)c(C(=O)O)cn(-c3ccc(CN(C)C)cc3)c12` [Example 97, 1-{4-[(dimethylamino)methyl]phenyl}-6-fluoro-8-methoxy-4-oxo-7-(4-phenylpiperazin-1-yl)-1,4-dihydroquinoline-3-carboxylic acid]: the IC50 was below 500 nM.
Under `COCCN(C)Cc1ccc(-n2cc(C(=O)O)c(=O)c3cc(F)c(N4CCN(c5ccccn5)CC4)c(Cl)c32)cc1` [Example 55] stands 500 to 2000 nM.
As for `CCN(CC)Cc1ccc(-n2cc(C(=O)O)c(=O)c3cc(F)c(N4CCN(c5ccc(F)cc5F)CC4)c(OC)c32)cc1` [Example 111, 1-{4-[(diethylamino)methyl]phenyl}-7-[4-(2,4-difluorophenyl)piperazin-1-yl]-6-fluoro-8-methoxy-4-oxo-1,4-dihydroquinoline-3-carboxylic acid], the figure is 500 to 2000 nM; as for `CCOc1ccc(N2CCN(c3c(F)cc4c(=O)c(C(=O)O)cn(-c5ccc(CN6CCCC6)cc5)c4c3Cl)CC2)cc1` [Example 12, 8-chloro-7-[4-(4-ethoxyphenyl)piperazin-1-yl]-6-fluoro-4-oxo-1-[4-(pyrrolidin-1-ylmethyl)phenyl]-1,4-dihydroquinoline-3-carboxylic acid], 2000 to 20000 nM; as for `CN(C)CCc1ccc(-n2cc(C(=O)O)c(=O)c3cc(F)c(N4CCN(c5ccccn5)CC4)c(Cl)c32)cc1` [Example 69, 8-chloro-1-{4-[2-(dimethylamino)ethyl]phenyl}-6-fluoro-4-oxo-7-(4-pyridin-2-ylpiperazin-1-yl)-1,4-dihydroquinoline-3-carboxylic acid], below 500 nM.
As for `N#Cc1c(N2CCN(c3ccccn3)CC2)c(F)cc2c(=O)c(C(=O)O)cn(-c3ccc(CN4CCCC4)cc3)c12` [Example 169, 8-cyano-6-fluoro-4-oxo-7-(4-pyridin-2-ylpiperazin-1-yl)-1-[4-(pyrrolidin-1-ylmethyl)phenyl]-1,4-dihydroquinoline-3-carboxylic acid], the IC50 lay in the range of 500 to 2000 nM.
For `O=C(O)c1cn(-c2cccc(CN3CCCCC3)c2)c2c(Cl)c(N3CCN(c4ccc(F)cc4F)CC3)c(F)cc2c1=O` [Example 64, 8-chloro-7-[4-(2,4-difluorophenyl)piperazin-1-yl]-6-fluoro-4-oxo-1-[3-(piperidin-1-ylmethyl)phenyl]-1,4-dihydroquinoline-3-carboxylic acid], the IC50 lay within 2000 to 20000 nM.
Under `N#Cc1ccccc1N1CCN(c2c(F)cc3c(=O)c(C(=O)O)cn(-c4ccc(CN5CCCC5)cc4F)c3c2Cl)CC1` [Example 39, 8-chloro-7-[4-(2-cyanophenyl)piperazin-1-yl]-6-fluoro-1-[2-fluoro-4-(pyrrolidin-1-ylmethyl)phenyl]-4-oxo-1,4-dihydroquinoline-3-carboxylic acid] stands below 500 nM.
Under `CCN(CC)Cc1ccc(-n2cc(C(=O)O)c(=O)c3cc(F)c(N4CCN(c5ncccn5)CC4)c(OC(F)(F)Cl)c32)cc1` [Example 160] stands 500 to 2000 nM; under `N#Cc1cccnc1N1CCN(c2c(F)cc3c(=O)c(C(=O)O)cn(-c4ccc(CN5CCCC5)c(F)c4)c3c2Cl)CC1` [Example 184, 8-chloro-7-[4-(3-cyanopyridin-2-yl)-piperazine-1-yl]-6-fluoro-1-(3-fluoro-4-pyrrolidin-1-ylmethyl-phenyl)-4-oxo-1,4-dihydroquinoline-3-carboxylic acid], below 500 nM; under `O=C(O)c1cn(-c2ccc(CNC3CCC3)cc2)c2c(Cl)c(N3CCN(c4ccccn4)CC3)c(F)cc2c1=O` [Example 58, 8-chloro-1-{4-[(cyclobutylamino)methyl]-phenyl}-6-fluoro-4-oxo-7-(4-pyridin-2-ylpiperazin-1-yl)-1,4-dihydroquinoline-3-carboxylic acid], below 500 nM.
As for `COc1c(N2CCN(c3ncccn3)CC2)c(F)cc2c(=O)c(C(=O)O)cn(-c3ccc(CN4CCCC4)cc3)c12` [Example 73, 6-fluoro-8-methoxy-4-oxo-7-(4-pyrimidin-2-ylpiperazin-1-yl)-1-[4-(pyrrolidin-1-ylmethyl)phenyl]-1,4-dihydroquinoline-3-carboxylic acid], the IC50 is below 500 nM.
Regarding `CN(C)Cc1ccc(-n2cc(C(=O)O)c(=O)c3cc(F)c(N4CCN(c5ncccn5)CC4)c(OC(F)(F)Cl)c32)cc1` [Example 157, 8-[chloro(difluoro)methoxy]-1-{4-[(dimethylamino)methyl]phenyl}-6-fluoro-4-oxo-7-(4-pyrimidin-2-ylpiperazin-1-yl)-1,4-dihydroquinoline-3-carboxylic acid], the IC50 lay in the range of 500 to 2000 nM.
Under `Cc1ccc(N2CCN(c3c(F)cc4c(=O)c(C(=O)O)cn(-c5ccc(CN6CCCC6)cc5)c4c3OC(F)(F)Cl)CC2)cc1C` [Example 151, 8-[chloro(difluoro)methoxy]-7-[4-(3,4-dimethylphenyl)piperazin-1-yl]-6-fluoro-4-oxo-1-[4-(pyrrolidin-1-ylmethyl)phenyl]-1,4-dihydroquinoline-3-carboxylic acid] stands below 500 nM.
Under `N#Cc1ccc(N2CCN(c3c(F)cc4c(=O)c(C(=O)O)cn(-c5ccc(CN6CCCC6)cc5F)c4c3Cl)CC2)cc1` [Example 48, 8-chloro-7-[4-(4-cyanophenyl)piperazin-1-yl]-6-fluoro-1-[2-fluoro-4-(pyrrolidin-1-ylmethyl)phenyl]-4-oxo-1,4-dihydroquinoline-3-carboxylic acid] stands below 500 nM; under `O=C(O)c1cn(-c2ccc(CN3CCCC3)c(F)c2)c2c(Cl)c(N3CCN(c4ccc(F)cc4)CC3)c(F)cc2c1=O` [Example 186, 8-chloro-7-[4-(4-fluorophenyl)-piperazine-1-yl]-6-fluoro-1-(3-fluoro-4-pyrrolidin-1-ylmethyl-phenyl)-4-oxo-1,4-dihydroquinoline-3-carboxylic acid], below 500 nM.
Under `CN(C)Cc1ccc(-n2cc(C(=O)O)c(=O)c3cc(F)c(N4CCN(c5ncccc5C#N)CC4)c(OC(F)(F)Cl)c32)cc1` [Example 158, 8-[chloro(difluoro)methoxy]-7-[4-(3-cyanopyridin-2-yl)piperazin-1-yl]-1-{4-[(dimethylamino)methyl]phenyl}-6-fluoro-4-oxo-1,4-dihydroquinoline-3-carboxylic acid] stands below 500 nM; under `O=C(O)c1cn(-c2ccc(CN3CCCC3)cc2)c2c(OC(F)(F)F)c(N3CCN(c4cccc(Cl)c4)CC3)c(F)cc2c1=O` [Example 119, 7-[4-(3-chlorophenyl)piperazin-1-yl]-6-fluoro-4-oxo-1-[4-(pyrrolidin-1-ylmethyl)phenyl]-8-(trifluoromethoxy)-1,4-dihydroquinoline-3-carboxylic acid], below 500 nM; under `O=C(O)c1cn(-c2ccc(CN3CCCC3)cc2F)c2c(Cl)c(N3CCN(c4ncccn4)CC3)c(F)cc2c1=O` [Example 40, 8-chloro-6-fluoro-1-[2-fluoro-4-(pyrrolidin-1-ylmethyl)phenyl]-4-oxo-7-(4-pyrimidin-2-ylpiperazin-1-yl)-1,4-dihydroquinoline-3-carboxylic acid], below 500 nM.
Consider `COc1c(N2CCN(c3ccc(C(F)(F)F)cc3)CC2)c(F)cc2c(=O)c(C(=O)O)cn(-c3ccc(CN(C)C)cc3)c12` [Example 100, 1-{4-[(dimethylamino)methyl]phenyl}-6-fluoro-8-methoxy-4-oxo-7-{4-[4-(trifluoromethyl)phenyl]piperazin-1-yl}-1,4-dihydroquinoline-3-carboxylic acid], for which the IC50 lay within 2000 to 20000 nM.
Under `CCN(C)Cc1ccc(-n2cc(C(=O)O)c(=O)c3cc(F)c(N4CCN(c5ncccn5)CC4)c(OC(F)(F)Cl)c32)cc1` [Example 165, 8-[chloro(difluoro)methoxy]-1-(4-{[ethyl(methyl)amino]methyl}phenyl)-6-fluoro-4-oxo-7-(4-pyrimidin-2-ylpiperazin-1-yl)-1,4-dihydroquinoline-3-carboxylic acid] stands below 500 nM; under `COc1c(N2CCN(c3ncccn3)CC2)c(F)cc2c(=O)c(C(=O)O)cn(-c3ccc(CN(C)C)cc3)c12` [Example 96, 1-{4-[(dimethylamino)methyl]phenyl}-6-fluoro-8-methoxy-4-oxo-7-(4-pyrimidin-2-ylpiperazin-1-yl)-1,4-dihydroquinoline-3-carboxylic acid], below 500 nM.
Under `COc1c(N2CCN(c3ccc(F)cc3)CC2)c(F)cc2c(=O)c(C(=O)O)cn(-c3ccc(CN4CCCC4)cc3)c12` [Example 74, 6-fluoro-7-[4-(4-fluorophenyl)piperazin-1-yl]-8-methoxy-4-oxo-1-[4-(pyrrolidin-1-ylmethyl)phenyl]-1,4-dihydroquinoline-3-carboxylic acid] stands below 500 nM.
